In general, % Inhibition refers to the percentage by which the read-out fell short of the control. Low readings indicate a response near the control, high ones a response far below the control.

The results in this text go back to patent US10517889B2, “Modulators of SMAD7 expression” (Ionis Pharmaceuticals, Inc., priority 2017, dated 2019).

The subject of the series is human SMAD7 mRNA. The experiment in a line: Antisense inhibition of human SMAD7 mRNA expression in Hep3B cells by 3-10-3 cEt gapmers, 10,000 nM, electroporation (Example 2). Format: cell-based. As to conditions: approximately 24 hours. The method in brief:
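Hep3B, 20,000 cells/well; electroporation, 10,000 nM ASO; ~24 h. Readout: SMAD7 mRNA by qRT-PCR (RTS5062), RIBOGREEN-normalised; % inhibition vs untreated.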

Where [1] appears, read: Hep3B cells, electroporation with 10,000 nM antisense oligonucleotide, SMAD7 mRNA by RT-PCR (RTS5062), relative to untreated control cells.
Setting [2] is: Hep3B cells, electroporation with 10,000 nM antisense oligonucleotide, primer probe set RTS5062, relative to untreated control cells.
[3] abbreviates: Hep3B cells, electroporation with 10,000 nM antisense oligonucleotide, RTS5062, percent inhibition of SMAD7 mRNA relative to untreated control cells.
[4] abbreviates: Hep3B cells, 10,000 nM antisense oligonucleotide, electroporation, RT-PCR primer probe set RTS5062, relative to untreated control cells.
[5] abbreviates: Hep3B cells, electroporation, 10,000 nM antisense oligonucleotide, RTS5062, relative to untreated control cells.
Where [6] appears, read: SMAD7 mRNA, Hep3B cells, electroporation with 10,000 nM antisense oligonucleotide, primer probe set RTS5062, relative to untreated control cells.
Where [7] appears, read: SMAD7 mRNA, Hep3B cells, 10,000 nM antisense oligonucleotide, electroporation, primer probe set RTS5062, relative to untreated control cells.

Strand notation (5' to 3'): a small letter for the sugar, then the base; units joined by * are phosphorothioate-linked, units joined directly phosphodiester-linked; [ ] holds rarer units or linkages, { } end groups; capitals alone tell only the bases. k = constrained ethyl (cEt); [5mC] = 5-methylcytosine; d = 2'-deoxy (DNA)

“799435 (antisense kT*k[5mC]*k[5mC]*dT*d[5mC]*dA*dA*dA*d[5mC]*d[5mC]*dT*dT*dT*k[5mC]*kA*kG) [compound 799435]”: under setting [1], the “% Inhibition” value was found to be 60%.

Consider “790621 (kG*kT*kG*d[5mC]*dA*dT*d[5mC]*dT*dT*dT*dT*d[5mC]*dT*kT*kT*kA; antisense) [compound 790621]”, for which the “% inhibition of SMAD7 mRNA expression” value under setting [2] turned out to be 0%.

As for “798682 (antisense kG*k[5mC]*kT*dA*dA*dG*dG*dA*dG*d[5mC]*dG*dA*dA*k[5mC]*kA*kT) [compound 798682]”, the “% Inhibition” value under setting [1] was 60%.

As for “799567 (k[5mC]*kT*kT*dT*dG*dA*dG*dT*dA*dA*dA*d[5mC]*dA*kA*kT*kA; antisense) [compound 799567]”, the “% Inhibition” value under setting [3] amounted to 15%.

“798875 (k[5mC]*kG*k[5mC]*dT*dG*d[5mC]*dA*dG*dG*d[5mC]*dT*dG*dT*kA*k[5mC]*kG; antisense) [compound 798875]”: the “% Inhibition” value under setting [4] is recorded as 58%.

Turning to “830187 (antisense kA*kT*kT*dA*d[5mC]*d[5mC]*d[5mC]*dT*dG*d[5mC]*dT*d[5mC]*dA*kT*kG*kA) [compound 830187]”, the “% Inhibition” value under setting [1] stood at 31%.

For the substance “799538 (kT*kG*k[5mC]*dA*dG*dG*dA*dT*dG*dA*dG*dG*dA*kG*k[5mC]*kT; antisense) [compound 799538]”, under setting [5], the “% inhibition of SMAD7 mRNA expression” value came out at 29%.

For “799348 (kA*kT*kA*dA*dA*dA*dG*dG*dA*dA*dA*dG*dG*kA*kG*kT; antisense) [compound 799348]”, under setting [1], the “% Inhibition” value is recorded as 21%.

With “798855 (kT*kT*kG*dT*dA*d[5mC]*dA*d[5mC]*d[5mC]*d[5mC]*dA*d[5mC]*dA*k[5mC]*kA*k[5mC]; antisense) [compound 798855]”, under setting [4], the “% Inhibition” value is on record as 11%.

As for “799181 (antisense kG*kT*kT*dA*dG*dA*dA*dA*dA*dA*dT*dA*dG*k[5mC]*kT*kT) [compound 799181]”, the “% Inhibition” value under setting [2] is given as 37%.

With “799622 (kT*kT*k[5mC]*dT*dA*dA*dA*dA*dA*dT*dG*dT*d[5mC]*k[5mC]*k[5mC]*kA; antisense) [compound 799622]”, the “% Inhibition” value under setting [3] is reported as 45%.

Turning to “829810 (kA*kT*k[5mC]*dG*dG*dG*dT*dA*dT*d[5mC]*dT*dG*dG*kA*kG*kT; antisense) [compound 829810]”, under setting [6], the “% Inhibition” value came to 29%.

On to “829783 (antisense kG*kA*kT*d[5mC]*d[5mC]*dG*dG*d[5mC]*d[5mC]*dA*d[5mC]*d[5mC]*dT*kG*kA*kA) [compound 829783]”, for which the “% Inhibition” value under setting [7] is given as 52%.

As to “799225 (kA*k[5mC]*kA*d[5mC]*d[5mC]*dA*dA*dT*d[5mC]*dT*dT*dG*dT*kG*kT*kT; antisense) [compound 799225]”, the “% Inhibition” value under setting [2] is given as 4%.

In the case of “799230 (kG*kG*kT*dG*dA*dT*dA*dA*d[5mC]*dA*d[5mC]*d[5mC]*d[5mC]*kA*kT*kA; antisense) [compound 799230]”, under setting [2], the “% inhibition of SMAD7 mRNA expression” value was 14%.

As to “830055 (kT*kT*kG*dG*dG*dT*dG*dA*dG*dT*dA*dA*d[5mC]*k[5mC]*kA*kG; antisense) [compound 830055]”, the “% Inhibition” value under setting [1] stood at 57%.

For “799142 (antisense kG*kG*kG*dT*dT*dA*dT*dG*dA*d[5mC]*dG*dG*dA*k[5mC]*k[5mC]*kA) [compound 799142]”, the “% Inhibition” value under setting [2] worked out at 38%.

For the substance “799938 (antisense k[5mC]*kT*k[5mC]*dT*dA*dA*dA*d[5mC]*d[5mC]*dA*dA*d[5mC]*dT*kT*kT*kT) [compound 799938]”, the “% Inhibition” value under setting [4] was 17%.

Take “799611 (kT*kG*kT*dG*dA*dA*dA*dG*dA*dG*dG*d[5mC]*dT*k[5mC]*kA*kG; antisense) [compound 799611]”: the “% Inhibition” value under setting [3] was 37%.

On to “799594 (kT*kG*kA*dA*d[5mC]*dG*dG*dA*dA*dA*dG*dA*dA*kG*kA*kA; antisense) [compound 799594]”, for which the “% inhibition of SMAD7 mRNA expression” value under setting [5] came to 35%.

As to “798670 (kG*kG*k[5mC]*dG*dG*d[5mC]*dG*dG*d[5mC]*d[5mC]*d[5mC]*dG*dA*kG*kG*kG; antisense) [compound 798670]”, under setting [1], the “% Inhibition” value is 44%.

Consider “829844 (antisense k[5mC]*kG*kA*dA*dT*dT*dG*dA*dG*d[5mC]*dT*dG*dT*k[5mC]*k[5mC]*kG) [compound 829844]”, for which, under setting [6], the “% Inhibition” value is reported as 49%.

For the substance “799258 (antisense kG*k[5mC]*k[5mC]*d[5mC]*d[5mC]*dA*dA*dA*dA*d[5mC]*dT*d[5mC]*d[5mC]*kA*kA*kA) [compound 799258]”, the “% Inhibition” value under setting [1] is listed as 4%.

Turning to “800106 (antisense k[5mC]*kA*kG*dA*dG*dA*dG*dG*dG*dT*dT*dA*dG*kT*kG*kG) [compound 800106]”, under setting [1], the “% Inhibition” value came out at 12%.

In the case of “799394 (antisense kA*k[5mC]*kA*dG*dA*dG*dA*dG*d[5mC]*dT*dG*dG*dG*kT*kA*kT) [compound 799394]”, the “% Inhibition” value under setting [1] was 33%.

For “799082 (antisense kG*k[5mC]*k[5mC]*d[5mC]*dA*dT*d[5mC]*dT*d[5mC]*dA*dG*dG*dG*kA*kG*kA) [compound 799082]”, the “% Inhibition” value under setting [2] turned out to be 27%.

On to “798861 (kG*kT*kG*dT*dG*dG*d[5mC]*dG*dG*dA*d[5mC]*dT*dT*kG*kA*kT; antisense) [compound 798861]”, for which the “% Inhibition” value under setting [1] came out at 24%.

“799697 (antisense kA*kA*kT*dA*dG*dT*dT*dT*dT*d[5mC]*dT*d[5mC]*dT*k[5mC]*kA*kA) [compound 799697]”: the “% inhibition of SMAD7 mRNA expression” value under setting [5] was determined as 59%.

For “799968 (k[5mC]*kT*kG*d[5mC]*dG*dA*dG*dT*dT*dA*dA*dT*d[5mC]*kA*kG*kA; antisense) [compound 799968]”, under setting [1], the “% Inhibition” value came to 27%.

Take “799235 (kG*kA*kA*dA*dA*dA*d[5mC]*dA*dT*dT*d[5mC]*dA*dG*k[5mC]*kT*kA; antisense) [compound 799235]”: the “% inhibition of SMAD7 mRNA expression” value under setting [2] worked out at 24%.

As to “799847 (kT*kT*k[5mC]*d[5mC]*dA*d[5mC]*dT*dA*dT*dT*d[5mC]*dT*dA*kT*kG*kA; antisense) [compound 799847]”, the “% Inhibition” value under setting [3] turned out to be 30%.

On to “798762 (kT*kA*kG*dG*dA*d[5mC]*dG*dA*dG*dG*dG*d[5mC]*dG*kG*k[5mC]*kT; antisense) [compound 798762]”, for which the “% inhibition of SMAD7 mRNA expression” value under setting [2] is given as 56%.

“798778 (k[5mC]*kA*k[5mC]*dA*dG*d[5mC]*dA*dA*d[5mC]*dA*d[5mC]*dA*dG*k[5mC]*k[5mC]*kT; antisense) [compound 798778]”: the “% inhibition of SMAD7 mRNA expression” value under setting [2] was 64%.

Turning to “798948 (antisense kG*k[5mC]*kG*dA*dA*dA*d[5mC]*dA*dA*dA*dA*d[5mC]*dA*kG*kA*kA) [compound 798948]”, the “% inhibition of SMAD7 mRNA expression” value under setting [2] came to 56%.

Turning to “799537 (kG*kG*kG*d[5mC]*dA*d[5mC]*d[5mC]*dA*d[5mC]*dA*dA*dT*dG*kT*k[5mC]*kA; antisense) [compound 799537]”, under setting [5], the “% inhibition of SMAD7 mRNA expression” value is 3%.

“829847 (antisense kT*kG*kT*d[5mC]*d[5mC]*dG*dA*dA*dT*dT*dG*dA*dG*k[5mC]*kT*kG) [compound 829847]”: under setting [6], the “% Inhibition” value is on record as 64%.

For “799899 (antisense kA*kA*kG*dT*d[5mC]*dT*d[5mC]*dT*dT*dA*d[5mC]*d[5mC]*dT*k[5mC]*kA*k[5mC]) [compound 799899]”, the “% Inhibition” value under setting [4] came out at 33%.

As to “829730 (antisense kG*k[5mC]*kA*dG*dG*d[5mC]*dG*d[5mC]*dA*dG*dG*d[5mC]*dG*kA*k[5mC]*kA) [compound 829730]”, the “% Inhibition” value under setting [7] is given as 23%.

Regarding “799794 (kA*kA*k[5mC]*d[5mC]*dA*d[5mC]*dA*dG*d[5mC]*dT*d[5mC]*d[5mC]*dT*kG*kT*kT; antisense) [compound 799794]”, the “% inhibition of SMAD7 mRNA expression” value under setting [5] is recorded as 0%.

Regarding “799342 (k[5mC]*kT*kT*dA*dT*d[5mC]*dT*dG*dT*dG*d[5mC]*dG*dG*kA*kA*kG; antisense) [compound 799342]”, under setting [2], the “% inhibition of SMAD7 mRNA expression” value is 44%.

Take “799426 (antisense kG*k[5mC]*kT*dT*dA*dA*dA*dT*dT*dA*dT*dA*dG*k[5mC]*kA*kA) [compound 799426]”: the “% Inhibition” value under setting [1] stood at 7%.

Turning to “830047 (kT*kT*k[5mC]*d[5mC]*dG*dA*dT*dT*dG*dG*d[5mC]*dA*dG*kG*kT*kT; antisense) [compound 830047]”, the “% Inhibition” value under setting [1] turned out to be 42%.

Turning to “799619 (kA*k[5mC]*kG*dA*d[5mC]*d[5mC]*dA*dG*dG*d[5mC]*d[5mC]*dT*dG*kT*k[5mC]*kG; antisense) [compound 799619]”, the “% inhibition of SMAD7 mRNA expression” value under setting [5] is reported as 9%.

Consider “799036 (kA*kG*k[5mC]*d[5mC]*dG*d[5mC]*d[5mC]*dA*dG*d[5mC]*dT*dT*dG*k[5mC]*k[5mC]*k[5mC]; antisense) [compound 799036]”, for which, under setting [2], the “% Inhibition” value is 8%.

With “829719 (antisense kG*k[5mC]*k[5mC]*dA*dG*dT*d[5mC]*dT*d[5mC]*d[5mC]*d[5mC]*dG*dG*kA*kG*kG) [compound 829719]”, the “% Inhibition” value under setting [7] was 15%.

On to “798822 (kG*kT*kA*dG*dA*dG*d[5mC]*d[5mC]*dT*d[5mC]*d[5mC]*d[5mC]*d[5mC]*kA*k[5mC]*kT; antisense) [compound 798822]”, for which the “% Inhibition” value under setting [4] is 56%.

Regarding “799170 (antisense kT*k[5mC]*kA*dT*dT*dG*dA*dG*d[5mC]*dT*dA*dA*dG*kA*kA*k[5mC]) [compound 799170]”, the “% inhibition of SMAD7 mRNA expression” value under setting [2] was 17%.
